“Also recorded” adds a separate entry of the source. Where two headings read alike, the source gives them in different places.
How the values were obtained:
Muscarinic M1 = assay: Eurofins radioligand binding; parameters: species or system Human; conditions: specific binding
Adrenergic α1B = assay: Eurofins radioligand binding; parameters: species or system Human; conditions: specific binding
[1] = test system: Nicotinic Acetylcholine α3β4; assay: Eurofins radioligand binding; parameters: species or system Human; conditions: specific binding
hNav1.5 (Tonic) = test system: T1, hNav1.5 (Tonic); assay: Ion channel current (Charles River Study 200609.WVN); format: cell-based, human; conditions: 10 μM, n 4
T1 construct: Charles River Study 200609.WVN
Source text: (§1) Table S2. Effects of VU6007496 on Ion Channel Current (Charles River Study 200609.WVN)
(§2) Ion Channel Conc Mean % Standard Standard n Individual Data
(§3) (μM) Inhibition Deviation Error Points (% Inhibition)

hKvLQT1/minK = test system: T2, hKvLQT1/minK; assay: as above; format: cell-based, human; conditions: 10 μM; n 4
T2 construct: Charles River
Source text: as §1, §2, §3

hKv1.5 = test system: T3, hKv1.5; assay: as above; format: cell-based, human; conditions: 10 μM; n 3
T3 construct: Charles River
Source text: as §1, §2, §3

hHCN2 = test system: T4, hHCN2; assay: as above; format: cell-based, human; conditions: 10 μM; n 3
T4 construct: Charles River
Source text: as §1, §2, §3

Cannabinoid CB1 = assay: Eurofins radioligand binding; parameters: species or system Human; conditions: specific binding
rats = assay: Novel object recognition (NOR) test; format: in vivo, rat
Description: Novel Object Recognition Task
Rats were habituated for 10 min for 2 consecutive days in an empty novel object recognition (NOR) arena consisting of dark-colored plexiglass box (40 × 64 × 33 cm3). On day 3, rats were administered vehicle (0.5% natrasol/0.015% Tween80) or M1 PAM (0.1-3 mg/kg, p.o.., 10 mL/kg, n = 15-18) and returned to their home cage for 30 min. Rats were then placed in the NOR arena containing two identical objects for 10 min. Following the exposure period, rats were placed back into their home cages for 24 h. The rats were then returned to the arena in which one of the previously exposed (familiar) objects was replaced by a novel object and were video recorded for 5 min while they explored the two objects. Time spent exploring each object was scored by an observer blinded to the experimental conditions and the recognition index was calculated as [(time spent exploring novel object) – (time spent exploring familiar object)]/total time exploring objects.
Supplemental field electrophysiology methods
Recording pipettes were constructed from thin-walled borosilicate capillary glass tubing (I.D.=1.17 mm, O.D. 1.50 mm; Warner Instruments, Hamden, CT), pulled with a horizontal pipette puller (P-97 Sutter Instrument Co., Novata, CA) to a resistance of 1-3MΩ when filled with ACSF. […]

[2] = test system: layer V medial prefrontal cortex (mPFC); assay: Field electrophysiology, layer V medial prefrontal cortex slices; parameters: species or system mouse; conditions: 3 μM bath application 20 min; recorded layer V, stimulation layer II/III
Description: PAMs 11 and 12 were next evaluated in our rat IV plasma: brain level cassette paradigm (0.25 mg/kg compound, 1 mg/kg total dose, 10.1% EtOH:40.4% PEG400:49.5% DMSO) sampled at a set 15 min time point to assess CNS penetration. […] As mice are the most sensitive species to cholinergic mechanisms,[11],[13],[23],[24] we placed a high-throughput phenotypic seizure liability assay into the work-flow in which potent ago-PAMs, such as 2–5,[8]−[15] display robust Racine scale 4/5 behavioral convulsions that develop within minutes of dosing and last for the 3 h duration of the study. […] In parallel, we performed electrophysiology studies in mouse native tissue layer V medial prefrontal cortex (mPFC). […]
Rats were habituated for 10 min for 2 consecutive days in an empty novel object recognition (NOR) arena consisting of dark-colored plexiglass box (40 × 64 × 33 cm3). […] The rats were then returned to the arena in which one of the previously exposed (familiar) objects was replaced by a novel object and were video recorded for 5 min while they explored the two objects. Time spent exploring each object was scored by an observer blinded to the experimental conditions and the recognition index was calculated as [(time spent exploring novel object) – (time spent exploring familiar object)]/total time exploring objects. […]

Serotonin (5-HT1A) = assay: Eurofins radioligand binding; parameters: species or system Human; conditions: specific binding
[3] = Rat dose escalation study (p.o., 30% captisol); format: in vivo; conditions: for Cmax: brain, read-out: total brain concentration at Cmax
Description: While awaiting more definitive MET ID studies in multispecies hepatocytes, we elected to perform a rat dose escalation study to assess exposures in a standard, tox-friendly oral vehicle (30% captisol) to lay the foundation for dose range finding/maximum tolerated dose (DRF/MTD) studies. Male Sprague–Dawley rats were dosed with VU6007496 (11) at doses of 3, 10, 30, 100, and 300 mg/kg p.o. in 30% captisol. […]. […] Recall, exposures in rat at the NOR MED were 990 nM total and 39.8 nM unbound brain concentrations, respectively. […]

[4] = test system: Nicotinic Acetylcholine α1, Bungarotoxin; assay: Eurofins radioligand binding; parameters: species or system Human; conditions: specific binding
Endothelin ETB = assay: Eurofins radioligand binding; parameters: species or system Human; conditions: specific binding
Neuropeptide Y Y2 = assay: Eurofins radioligand binding; parameters: species or system Human; conditions: specific binding
MET ID in human liver S9 = format: in vitro ADME; conditions: based on MS peak areas
Source text: Eight oxidative metabolites were identified, with the major metabolite in both rat and human being Metabolite A (VU6036463, 24), the result of oxidative N-demethylation of the southern pyrazole (Scheme 4). The majority of other oxidative metabolism occurred on the tetrahydropyran moiety and included ring opening, but there was no amide hydrolysis observed.[21]

Adenosine A1 = assay: Eurofins radioligand binding; parameters: species or system Human; conditions: specific binding
Imidazoline I2, Central = assay: Eurofins radioligand binding; parameters: species or system Rat; conditions: specific binding

**Q.** For `Cn1ccc(-c2ccc(Cc3cc(C(=O)NC4CCOCC4)nc4ccn(C)c34)cc2)n1` [compound 11], which “% Inhibition at 10 µM” value (Muscarinic M1) is on record?
**A.** -8%

**Q.** And the “% Inhibition at 10 µM” value (Adrenergic α1B)?
**A.** 14%

**Q.** And the “% Inhibition at 10 µM” value [1]?
**A.** 6%

**Q.** What about the “Mean % Inhibition” value (hNav1.5 (Tonic)) of the same compound?
**A.** 3.9%

**Q.** And the “Mean % Inhibition” value (hKvLQT1/minK)?
**A.** 13.5%

**Q.** What about the “Mean % Inhibition” value (hKv1.5) of the same compound?
**A.** 8.7%

**Q.** What about the “Mean % Inhibition” value (hHCN2) of the same compound?
**A.** 4.9%

**Q.** And the “% Inhibition at 10 µM” value (Cannabinoid CB1)?
**A.** 5%

**Q.** And the “effect on recognition memory (NOR)” value (rats; rats, 0.1, 0.3, 1, and 3 mg/kg p.o., 30 min pretreatment, assessed 24 h later)?
**A.** dose-dependently enhanced recognition memory

**Q.** And the “minimum effective dose (MED) in novel object recognition” value (rats; rats, p.o.)?
**A.** 3 mg/kg

**Q.** And the “change in fEPSP slope (long-term depression)” value [2]?
**A.** did not induce significant changes; also recorded: no significant change in fEPSP slope

**Q.** What about the “% Inhibition at 10 µM” value (Serotonin (5-HT1A)) of the same compound?
**A.** 7%

**Q.** What about the Cmax ([3]; male, Sprague-Dawley, po, rat, 100 mg/kg p.o.) of the same compound?
**A.** 9.1 µM

**Q.** What about the Cmax ([3]; male, Sprague-Dawley, po, rat, 300 mg/kg p.o.) of the same compound?
**A.** 17.2 µM

**Q.** And the Tmax ([3]; male, Sprague-Dawley, in vivo, po, rat, 3, 10, 30, 100, and 300 mg/kg p.o., all doses)?
**A.** < 2 h

**Q.** And the “fold over the NOR MED exposure” value ([3]; rat, 100 mg/kg p.o.)?
**A.** ~9 fold

**Q.** And the “unbound brain concentration at Cmax” value ([3]; rat, 100 mg/kg p.o.)?
**A.** 0.298 µM

**Q.** And the “fold over the NOR MED exposure” value ([3]; rat, 300 mg/kg p.o.)?
**A.** ~17 fold

**Q.** What about the “unbound brain concentration at Cmax” value ([3]; rat, 300 mg/kg p.o.) of the same compound?
**A.** 0.569 µM

**Q.** What about the adverse cholinergic events ([3]; rat, 100 and 300 mg/kg p.o. dose groups, after 4.5 h) of the same compound?
**A.** severe adverse cholinergic events

**Q.** And the “dose proportionality of exposure” value ([3]; rat, from 3 to 30 mg/kg p.o.)?
**A.** Linear dose escalation

**Q.** What about the cholinergic toxicity ([3]; rats, 30 mg/kg p.o.) of the same compound?
**A.** not observed

**Q.** What about the “window from the MED” value ([3]; rats, 30 mg/kg p.o. vs MED 3 mg/kg) of the same compound?
**A.** 10 fold

**Q.** What about the “% Inhibition at 10 µM” value [4] of the same compound?
**A.** -3%

**Q.** And the “% Inhibition at 10 µM” value (Endothelin ETB)?
**A.** -5%

**Q.** What about the “% Inhibition at 10 µM” value (Neuropeptide Y Y2) of the same compound?
**A.** 31%

**Q.** And the “extent of metabolism, human liver S9” value (MET ID in human liver S9)?
**A.** 58.1%

**Q.** What about the “% Inhibition at 10 µM” value (Adenosine A1) of the same compound?
**A.** 10%

**Q.** What about the “% Inhibition at 10 µM” value (Imidazoline I2, Central) of the same compound?
**A.** -9%

Source: article PMC11413853, “Discovery of VU6007496: Challenges in the Development of an M1 Positive Allosteric Modulator Backup Candidate” (ACS Chemical Neuroscience, 2024)
